Laboratory results published in patent US7432260B2, “Pyrimidine compounds” (Cyclacel Limted, priority 2002, dated 2008).

Legend:
CDK1/cyclin B = CDK1/cyclin B (Homo sapiens, UniProt P06493); assay: Kinase assay CDK1/cyclin B; format: biochemical; conditions: Table 2; read-out: Kinase Inhibition IC50 CDK1 cyclin B
Description: (§1) Kinase assays. […] This was achieved by measurement of incorporation of radioactive phosphate from ATP into appropriate polypeptide substrates. Recombinant protein kinases and kinase complexes were produced or obtained commercially. Assays were performed using 96-well plates and appropriate assay buffers (typically 25 mM β-glycerophosphate, 20 mM MOPS, 5 mM EGTA, 1 mM DTT, 1 mM […], pH 7.4), into which were added 2-4 μg of active enzyme with appropriate substrates. The reactions were initiated by addition of Mg/ATP mix (15 mM MgCl2+100 μM ATP with 30-50 kBq per well of [γ-^32P]-ATP) and mixtures incubated as required at 30° C. Reactions were stopped on ice, followed by filtration through p81 filterplates or GF/C filterplates (Whatman Polyfiltronics, Kent, UK). After washing 3 times with 75 mM aq orthophosphoric acid, plates were dried, scintillant added and incorporated radioactivity measured in a scintillation counter (TopCount, Packard Instruments, Pangbourne, Berks, UK). Compounds for kinase assay were made-up as 10 mM stocks in DMSO and diluted into 10% DMSO inrassay buffer.

A549 = assay: 72-h MTT cytotoxicity assay A549; format: cell-based; conditions: Homo sapiens, A549, 72 h, Table 4
Description: (§2) MTT cytotoxicity assay. […] Standard 72-h MTT (thiazolyl blue; 3-[4,5-dimethylthiazol-2-yl]-2,5-diphenyltetrazolium bromide) assays were performed (Haselsberger, K.; Peterson, D. C.; Thomas, D. G.; Darling, J. L. Anti Cancer Drugs 1996, 7, 331-8; Loveland, B. E.; Johns, T. G.; Mackay, I. R.; Vaillant, F.; Wang, Z. X.; Hertzog, P. J. Biochemistry International 1992, 27, 501-10). In short: cells were seeded into 96-well plates according to doubling time and incubated overnight at 37° C. Test compounds were made up in DMSO and a 1/3 dilution series prepared in 100 μL cell media, added to cells (in triplicates) and incubated for 72 ho at 37° C. MTT was made up as a stock of 5 mg/mL in cell media and filter-sterilised. Media was removed from cells followed by a wash with 200 μL PBS.
(§3) MTT solution was then added at 20 μL per well and incubated in the dark at 37° C. for 4 h. MTT solution was removed and cells again washed with 200 μL PBS. MTT dye was solubilised with 200 μL per well of DMSO with agitation.

HT29 = assay: 72-h MTT cytotoxicity assay HT29; format: cell-based; conditions: Homo sapiens, HT-29, 72 h, Table 4
Description: as §2, §3

CDK2/cyclin A = CDK2/cyclin A (Homo sapiens, UniProt P24941); assay: Kinase assay CDK2/cyclin A; format: biochemical; conditions: Table 2; read-out: Kinase Inhibition IC50 CDK2 cyclin A
Description: as §1

CDK4/cyclin D1 = CDK4/cyclin D1 (Homo sapiens, UniProt P11802); assay: Kinase assay CDK4/cyclin D1; format: biochemical; conditions: Table 2; read-out: Kinase Inhibition IC50 CDK4 cyclin D1
CDK4/cyclin D1, sequence (P11802 whole entry): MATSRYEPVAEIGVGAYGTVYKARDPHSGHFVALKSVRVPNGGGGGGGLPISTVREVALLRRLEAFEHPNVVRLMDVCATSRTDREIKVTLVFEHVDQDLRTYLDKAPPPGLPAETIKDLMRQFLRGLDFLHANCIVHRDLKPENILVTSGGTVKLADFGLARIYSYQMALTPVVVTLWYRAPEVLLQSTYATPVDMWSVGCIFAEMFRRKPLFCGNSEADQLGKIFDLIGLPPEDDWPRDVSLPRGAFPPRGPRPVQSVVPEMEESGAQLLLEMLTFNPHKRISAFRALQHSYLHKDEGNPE
CDK4/cyclin D1, sequence (P24385 whole entry partner): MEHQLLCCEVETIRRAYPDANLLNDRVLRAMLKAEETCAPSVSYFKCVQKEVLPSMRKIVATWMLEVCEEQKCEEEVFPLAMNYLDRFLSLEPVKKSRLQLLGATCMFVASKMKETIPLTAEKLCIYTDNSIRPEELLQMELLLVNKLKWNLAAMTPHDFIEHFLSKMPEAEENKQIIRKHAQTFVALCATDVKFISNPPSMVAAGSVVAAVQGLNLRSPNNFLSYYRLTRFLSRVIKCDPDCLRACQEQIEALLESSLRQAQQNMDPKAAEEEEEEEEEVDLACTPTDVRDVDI
Description: as §1

Saos-2 = assay: 72-h MTT cytotoxicity assay Saos-2; format: cell-based; conditions: Homo sapiens, SAOS-2, 72 h, Table 4
Description: as §2, §3

CDK2/cyclin E = CDK2/cyclin E (Homo sapiens, UniProt P24941); assay: Kinase assay CDK2/cyclin E; format: biochemical; conditions: Table 2; read-out: Kinase Inhibition IC50 CDK2 cyclin E
Description: as §1

CDK9/cyclin T1 = CDK9/cyclin T1 (Homo sapiens, UniProt P50750); assay: CDK9 assay; format: biochemical; conditions: Table 2; read-out: Kinase Inhibition IC50 CDK9 cyclin T1
CDK9/cyclin T1, sequence (P50750 whole entry): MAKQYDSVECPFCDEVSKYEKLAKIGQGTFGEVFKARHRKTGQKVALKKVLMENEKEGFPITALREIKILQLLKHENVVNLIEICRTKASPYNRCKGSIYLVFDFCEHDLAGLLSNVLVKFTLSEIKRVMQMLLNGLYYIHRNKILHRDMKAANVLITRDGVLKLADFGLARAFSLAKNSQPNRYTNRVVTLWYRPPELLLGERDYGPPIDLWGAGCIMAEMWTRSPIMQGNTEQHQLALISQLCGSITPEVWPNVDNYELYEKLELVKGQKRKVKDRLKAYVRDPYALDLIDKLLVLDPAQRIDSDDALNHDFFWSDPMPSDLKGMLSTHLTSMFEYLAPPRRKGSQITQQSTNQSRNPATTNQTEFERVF
CDK9/cyclin T1, sequence (O60563 whole entry partner): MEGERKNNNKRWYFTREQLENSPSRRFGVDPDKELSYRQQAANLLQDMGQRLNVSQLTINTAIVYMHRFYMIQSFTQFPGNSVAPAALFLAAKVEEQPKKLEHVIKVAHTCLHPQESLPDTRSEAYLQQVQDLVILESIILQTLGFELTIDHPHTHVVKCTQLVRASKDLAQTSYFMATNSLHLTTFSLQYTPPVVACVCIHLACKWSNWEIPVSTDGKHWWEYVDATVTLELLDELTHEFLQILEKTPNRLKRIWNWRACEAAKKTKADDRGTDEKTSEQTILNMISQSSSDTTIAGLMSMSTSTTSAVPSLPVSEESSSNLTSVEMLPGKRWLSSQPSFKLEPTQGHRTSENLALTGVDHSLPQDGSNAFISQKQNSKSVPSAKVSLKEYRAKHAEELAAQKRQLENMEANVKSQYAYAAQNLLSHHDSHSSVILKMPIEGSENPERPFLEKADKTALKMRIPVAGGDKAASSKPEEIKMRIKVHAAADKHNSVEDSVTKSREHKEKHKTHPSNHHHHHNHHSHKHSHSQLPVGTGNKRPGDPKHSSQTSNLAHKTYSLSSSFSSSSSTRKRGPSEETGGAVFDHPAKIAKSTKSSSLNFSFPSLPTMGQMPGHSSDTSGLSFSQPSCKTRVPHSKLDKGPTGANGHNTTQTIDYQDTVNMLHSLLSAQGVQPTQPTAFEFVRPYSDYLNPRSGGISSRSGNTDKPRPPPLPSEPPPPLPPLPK
Description: as §1
(§4) CDK 7 and 9 assays. CTD peptide substrate (biotinyl-Ahx-(Tyr-Ser-Pro-Thr-Ser-Pro-Ser)4-NH2; 1-2 mg/mL) and recombinant human CDK7/cyclin H, CDK9/cyclin T1, or CDK9/cyclin K (0.5-2 μg) were incubated for 45 min at 30° C. in the presence of varying amounts of test compound in 20 mM MOPS pH 7.2, 25 mM β-glycerophosphate, 5 mM EGTA, 1 mM DTT, 1 mM sodium vanadate, 15 mM MgCl2, and 100 μM ATP (containing a trace amount of ^32PγATP) in a total volume of 25 μL in a 96-well microtiter plate. The reaction was stopped by placing the plate on ice for 2 min. Avidin (50 μg) was added to each well, and the plate was incubated at room temp for 30 min. The samples were transferred to a 96-well P81 filter plate, and washed (4×200 μL per well) with 75 mM phosphoric acid. Microscint 40 scintillation liquid (50 μL) was added to each well, and the amount of ^32P incorporation for each sample was measured using a Packard Topcount microplate scintillation counter.

CDK7/cyclin H = CDK7/cyclin H (Homo sapiens, UniProt P50613); assay: CDK7 assay; format: biochemical; conditions: Table 2; read-out: Kinase Inhibition IC50 CDK7 cyclin H
CDK7/cyclin H, sequence (P50613 whole entry): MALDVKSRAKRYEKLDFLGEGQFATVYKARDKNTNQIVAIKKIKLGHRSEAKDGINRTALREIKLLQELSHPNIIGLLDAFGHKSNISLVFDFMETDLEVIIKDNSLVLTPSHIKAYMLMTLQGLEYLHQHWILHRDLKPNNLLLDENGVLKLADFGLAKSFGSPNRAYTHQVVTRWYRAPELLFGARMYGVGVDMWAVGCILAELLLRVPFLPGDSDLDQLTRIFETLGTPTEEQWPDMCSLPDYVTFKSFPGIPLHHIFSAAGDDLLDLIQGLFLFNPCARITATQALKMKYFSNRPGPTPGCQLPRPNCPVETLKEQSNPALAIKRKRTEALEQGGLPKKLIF
Description: as §1, §4

CDK1/cyclin B, sequence (P06493 whole entry): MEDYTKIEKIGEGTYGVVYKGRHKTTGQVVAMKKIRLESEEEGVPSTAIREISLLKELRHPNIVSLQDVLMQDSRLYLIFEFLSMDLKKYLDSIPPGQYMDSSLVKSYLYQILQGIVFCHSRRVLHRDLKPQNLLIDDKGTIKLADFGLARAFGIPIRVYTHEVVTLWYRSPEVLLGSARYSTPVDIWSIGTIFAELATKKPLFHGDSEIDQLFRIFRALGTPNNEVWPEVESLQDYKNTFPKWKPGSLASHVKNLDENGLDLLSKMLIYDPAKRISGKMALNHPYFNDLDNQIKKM
CDK1/cyclin B, sequence (P14635 whole entry partner): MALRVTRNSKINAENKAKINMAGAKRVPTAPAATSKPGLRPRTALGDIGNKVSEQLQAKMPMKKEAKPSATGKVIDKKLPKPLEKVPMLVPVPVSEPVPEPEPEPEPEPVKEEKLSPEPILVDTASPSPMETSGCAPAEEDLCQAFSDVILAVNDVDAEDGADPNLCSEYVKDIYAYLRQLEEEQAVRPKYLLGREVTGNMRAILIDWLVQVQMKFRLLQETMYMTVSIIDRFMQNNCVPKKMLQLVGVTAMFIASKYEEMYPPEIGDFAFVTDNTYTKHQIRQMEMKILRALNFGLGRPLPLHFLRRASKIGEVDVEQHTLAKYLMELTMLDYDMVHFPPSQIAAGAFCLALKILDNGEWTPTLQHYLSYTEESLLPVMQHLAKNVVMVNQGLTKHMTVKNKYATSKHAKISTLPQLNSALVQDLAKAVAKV

Compound: Cc1nc(NC(=O)CN2CCN(C(=O)OC(C)(C)C)CC2)sc1-c1ccnc(Nc2cccc([N+](=O)[O-])c2)n1 [Compound 28, 4-({4-Methyl-5-[2-(3-nitro-phenylamino)-pyrimidin-4-yl]-thiazol-2-ylcarbamoyl}-methyl)-piperazine-1-carboxylic acid tert-butyl ester]
- IC50 (CDK1/cyclin B): 36 µM
- IC50 (A549): 9.9 µM
- IC50 (HT29): 6.74 µM
- IC50 (CDK2/cyclin A): 12 µM
- IC50 (CDK4/cyclin D1): 29 µM
- IC50 (Saos-2): 15 µM
- IC50 (CDK2/cyclin E): 2.6 µM

Compound: Cc1nc(NC(=O)CCNCCN2CCOCC2)sc1-c1ccnc(Nc2ccc(Cl)cc2)n1 [Compound 37, N-{5-[2-(4-Chloro-phenylamino)-pyrimidin-4-yl]-4-methyl-thiazol-2-yl}-3-(2-morpholin-4-yl-ethylamino)-propionamide]
- IC50 (CDK1/cyclin B): > 100 µM
- IC50 (A549): 35 µM
- IC50 (HT29): 15 µM
- IC50 (CDK2/cyclin A): 16 µM
- IC50 (CDK9/cyclin T1): 6.3 µM
- IC50 (CDK4/cyclin D1): 18 µM
- IC50 (Saos-2): 73 µM
- IC50 (CDK2/cyclin E): 8 µM

Compound: Cc1nc(NC(=O)CCl)sc1-c1ccnc(Nc2ccc(F)cc2)n1 [Compound 33, 2-Chloro-N-{5-[2-(4-fluoro-phenylamino)-pyrimidin-4-yl]-4-methyl-thiazol-2-yl}-acetamide]
- IC50 (A549): 0.33 µM
- IC50 (HT29): 0.11 µM
- IC50 (Saos-2): 0.3 µM

Compound: Cc1nc(NS(C)(=O)=O)sc1-c1ccnc(Nc2ccc(F)cc2)n1 [Compound 31, N-{5-[2-(4-Fluoro-phenylamino)-pyrimidin-4-yl]-4-methyl-thiazol-2-yl}-methanesulfonamide]
- IC50 (A549): 2 µM
- IC50 (HT29): 4.1 µM
- IC50 (CDK4/cyclin D1): 5.6 µM
- IC50 (Saos-2): 0.81 µM
- IC50 (CDK2/cyclin E): 0.3 µM

Compound: CC(=O)N(C)c1ccc(Nc2nccc(-c3sc(C)nc3C)n2)cc1 [Compound 48, N-{4-[4-(2,4-Dimethyl-thiazol-5-yl)-pyrimidin-2-ylamino]-phenyl}-N-methyl-acetamide]
- IC50 (CDK1/cyclin B): 12 µM
- IC50 (A549): 3 µM
- IC50 (CDK7/cyclin H): 3.5 µM
- IC50 (HT29): 2.6 µM
- IC50 (CDK2/cyclin A): 1.7 µM
- IC50 (CDK4/cyclin D1): 2.6 µM
- IC50 (Saos-2): 3.8 µM
- IC50 (CDK2/cyclin E): 2.1 µM

Compound: Cc1nc(C)c(-c2ccnc(Nc3ccc(NC(=O)CN4CCOCC4)cc3)n2)s1 [Compound 51, N-{4-[4-(2,4-Dimethyl-thiazol-5-yl)-pyrimidin-2-ylamino]-phenyl}-2-morpholin-4-yl-acetamide]
- IC50 (CDK1/cyclin B): 11 µM
- IC50 (A549): 1.9 µM
- IC50 (CDK7/cyclin H): 9.6 µM
- IC50 (HT29): 1.4 µM
- IC50 (CDK2/cyclin A): 2.9 µM
- IC50 (CDK4/cyclin D1): 0.4 µM
- IC50 (Saos-2): 1.1 µM
- IC50 (CDK2/cyclin E): 1.7 µM

Compound: Cc1nc(C)c(-c2ccnc(Nc3ccc(S(C)(=O)=O)cc3)n2)s1 [Compound 85, [4-(2,4-Dimethyl-thiazol-5-yl)-pyrimidin-2-yl]-(4-methanesulfonyl-phenyl)-amine]
- IC50 (CDK1/cyclin B): 0.048 µM
- IC50 (CDK7/cyclin H): 11 µM
- IC50 (CDK2/cyclin A): 0.001 µM
- IC50 (CDK4/cyclin D1): 3.8 µM
- IC50 (CDK2/cyclin E): 0.028 µM

Compound: CNc1nc(C)c(-c2ccnc(Nc3cccc(CO)c3)n2)s1 [Compound 91, {3-[4-(4-Methyl-2-methylamino-thiazol-5-yl)-pyrimidin-2-ylamino]-phenyl}-methanol]
- IC50 (CDK1/cyclin B): 0.12 µM
- IC50 (CDK2/cyclin A): 0.1 µM
- IC50 (CDK4/cyclin D1): 0.63 µM
- IC50 (CDK2/cyclin E): 0.11 µM

Compound: Cc1nc(C)c(-c2ccnc(Nc3ccc(N4CCN(S(C)(=O)=O)CC4)cc3)n2)s1 [Compound 10, [4-(2,4-Dimethyl-thiazol-5-yl)-pyrimidin-2-yl]-[4-(4-methanesulfonyl-piperazin-1-yl)-phenyl]-amine]
- IC50 (CDK1/cyclin B): 51 µM
- IC50 (A549): 11 µM
- IC50 (HT29): 6.4 µM
- IC50 (CDK4/cyclin D1): 11 µM

Compound: CNc1nc(C)c(-c2ccnc(Nc3ccc(N4CCNCC4)cc3)n2)s1 [Compound 62, [4-(4-Methyl-2-methylamino-thiazol-5-yl)-pyrimidin-2-yl]-(4-piperazin-l-yl-phenyl)-amine]
- IC50 (CDK1/cyclin B): 0.98 µM
- IC50 (A549): 0.19 µM
- IC50 (HT29): 0.18 µM
- IC50 (CDK4/cyclin D1): 0.007 µM
- IC50 (Saos-2): 0.26 µM

Compound: Cc1nc(C)c(-c2ccnc(Nc3ccc(NC(=O)Cn4cncn4)cc3)n2)s1 [Compound 52, N-{4-[4-(2,4-Dimethyl-thiazol-5-yl)-pyrimidin-2-ylamino]-phenyl}-2-[1,2,4]triazol-1-yl-acetamide]
- IC50 (CDK1/cyclin B): 2.5 µM
- IC50 (A549): 1.6 µM
- IC50 (CDK7/cyclin H): 2 µM
- IC50 (HT29): 1.6 µM
- IC50 (CDK2/cyclin A): 1.3 µM
- IC50 (CDK4/cyclin D1): 0.18 µM
- IC50 (Saos-2): 1.1 µM
- IC50 (CDK2/cyclin E): 0.44 µM

Compound: Cc1nc(NC(=O)[C@@H](N)[C@H](C)O)sc1-c1ccnc(Nc2cccc([N+](=O)[O-])c2)n1 [Compound 17, (2S,3S)-2-Amino-3-hydroxy-N-{4-methyl-5-[2-(3-nitro-phenylamino)-pyrimidin-4-yl]-thiazol-2-yl}-butyramide]
- IC50 (CDK1/cyclin B): 2 µM
- IC50 (A549): 1.1 µM
- IC50 (HT29): 1.2 µM
- IC50 (Saos-2): 1.2 µM
- IC50 (CDK2/cyclin E): 0.21 µM

Compound: Cc1nc(NC(=O)CCCN)sc1-c1ccnc(Nc2cccc([N+](=O)[O-])c2)n1 [Compound 18, 4-Amino-N-{4-methyl-5-[2-(3-nitro-phenylamino)-pyrimidin-4-yl]-thiazol-2-yl}-butyramide]
- IC50 (A549): 2.5 µM
- IC50 (HT29): 2.4 µM
- IC50 (CDK9/cyclin T1): 0.53 µM
- IC50 (CDK4/cyclin D1): 1.1 µM
- IC50 (Saos-2): 1.1 µM
- IC50 (CDK2/cyclin E): 0.18 µM

Compound: Cc1nc(C)c(-c2ccnc(Nc3ccc(N4CCN(CCOCCO)CC4)cc3)n2)s1 [Compound 7, [4-(2,4-Dimethyl-thiazol-5-yl)-pyrimidin-2-yl]-[4-(4′-2″-ethoxylethanolpiperazino)-phenyl]-amine]
- IC50 (CDK1/cyclin B): 4.2 µM
- IC50 (A549): 3.9 µM
- IC50 (CDK7/cyclin H): 2.2 µM
- IC50 (HT29): 1.6 µM
- IC50 (CDK2/cyclin A): 1.3 µM
- IC50 (CDK4/cyclin D1): 0.62 µM
- IC50 (Saos-2): 1.6 µM
- IC50 (CDK2/cyclin E): 1.8 µM

Compound: Cc1nc(NC(=O)[C@@H](N)CO)sc1-c1ccnc(Nc2cccc([N+](=O)[O-])c2)n1 [Compound 14, (2S)-2-Amino-3-hydroxy-N-{4-methyl-5-[2-(3-nitro-phenylamino)-pyrimidin-4-yl]-thiazol-2-yl}-propionamide]
- IC50 (A549): 0.99 µM
- IC50 (HT29): 0.73 µM
- IC50 (CDK9/cyclin T1): 0.34 µM
- IC50 (CDK4/cyclin D1): 2.2 µM
- IC50 (Saos-2): 1.5 µM
- IC50 (CDK2/cyclin E): 0.068 µM

Compound: Cc1nc(NC(=O)CCl)sc1-c1ccnc(Nc2cccc([N+](=O)[O-])c2)n1 [Compound 24, 2-Chloro-N-{4-methyl-5-[2-(3-nitro-phenylamino)-pyrimidin-4-yl]-thiazol-2-yl}-acetamide]
- IC50 (A549): 0.14 µM
- IC50 (HT29): 0.14 µM
- IC50 (CDK9/cyclin T1): 0.0058 µM
- IC50 (CDK4/cyclin D1): 0.44 µM
- IC50 (Saos-2): 0.17 µM
- IC50 (CDK2/cyclin E): 1.1 µM

Compound: Cc1nc(NC(=O)CCBr)sc1-c1ccnc(Nc2ccc(F)cc2)n1 [Compound 20, 3-Bromo-N-{5-[2-(4-fluoro-phenylamino)-pyrimidin-4-yl]-4-methyl-thiazol-2-yl}-propionamide]
- IC50 (CDK1/cyclin B): 1.9 µM
- IC50 (A549): 5.8 µM
- IC50 (HT29): 6.3 µM
- IC50 (CDK2/cyclin A): 0.52 µM
- IC50 (CDK9/cyclin T1): 0.037 µM
- IC50 (CDK4/cyclin D1): 0.77 µM
- IC50 (CDK2/cyclin E): 0.076 µM
